This is an account of results in patent publication US20230149507A1, “TREATMENT OF ALT CANCERS” (INSTITUTO DE MEDICINA MOLECULAR JOÃO LOBO ANTUNES, priority 2019, published 2023).

The subject of one data set is U2OS and HeLa cells. In words: Indirect IF with anti-BLM and anti-TRF2 antibodies, camptothecin treatment. The data set is classed as cell-based, human. The text has this: HeLa cervical cancer, HT1080 fibrosarcoma, and HEK293 embryonic kidney cells were purchased from ATCC. U2OS osteosarcoma cells were a kind gift from M. Lopes (IMCR, Zurich, Switzerland). HuO9, Saos2 and HOS osteosarcoma cells were a kind gift from B. Fuchs (Balgrist University Hospital, Zurich, Switzerland). WI-38 VA13 in vitro SV40-transformed lung fibroblasts were a kind gift from A. Londoño-Vallejo (CNRS, Paris, France). SKNAS neuroblastoma cells were a kind gift from O. Shakhova (University Hospital Zurich, Switzerland). HeLa, HT1080, HEK293, U2OS, and WI-38 VA13 cells were cultured in high glucose DMEM, GlutaMAX (Thermo Fisher Scientific) supplemented with 10% tetracycline-free fetal bovine serum (Pan BioTech) and 100 U/ml penicillin-streptomycin (Thermo Fisher Scientific). HuO9, Saos2, HOS and SKNAS cells were cultured in high glucose DMEM/F12, GlutaMAX (Thermo Fisher Scientific), supplemented with 10% tetracycline-free fetal bovine serum (Pan BioTech), 100 U/ml penicillin-streptomycin (Thermo Fisher Scientific) and non-essential amino acids (Thermo Fisher Scientific). Mycoplasma contaminations were tested using the VenorGeM Mycoplasma PCR Detection Kit (Minerva Biolabs) according to the manufacturer's instructions. […]

The next data set concerns U-2 OS ALT cells. In words: Metaphase-TIFs after FANCM knockdown with siRNA. In kind it is cell-based, human. The conditions noted are these: compared to the scrambled control; siRNA 30 nM, 72 h. The text has this:
(§1) (a) Representative images of telomere (green) and γ-H2AX (red) colocalizations on metaphase spreads (meta-TIFs) in U-2 OS cells with or without FANCM depletion (left panel). Meta-TIFs are indicated by white arrows. Scale bars are 5 μm. Quantitation of TIFs (right panel). Scatterplot bars represent the mean±SEM. Out of 3 experiments, n≥81 metaphases scored per treatment, **p<0.005, Mann-Whitney test. (b) Native and denatured TRF analysis of U-2 OS cells with or without FANCM depletion. Colored arrows correspond to telomeric DNA species depicted in panel c. (c) Schematic of migration patterns for indicated telomeric species separated by two-dimensional gel electrophoresis (top panel). Two-dimensional TRF analysis of U-2 OS cells with or without FANCM depletion, hybridized under native and denatured conditions to detect the telomeric C-strand and G-strand (left and right panels). Colored arrows correspond to telomeric DNA species depicted in schematic. (d) Representative dot blot and quantitation of C-circle assays of U-2 OS cells with or without FANCM depletion. C-circle levels were normalized to the mean of scrambled control. Error bars represent the mean±SEM from n=3 experiments, *p<0.05, **p<0.005, Student's t-test. […] Out of 3 experiments, n≥150 cells scored per treatment, *p<0.05, **p<0.005, Mann-Whitney test. […]

The subject of a further data set is U-2 OS cells. The data set can be described thus: Terminal restriction fragment (TRF) analysis after FANCM siRNA. The data set is classed as cell-based, human. As to conditions: FANCM depletion, siRNA 30 nM.
Source text: as §1

The target of data set [1] is T1, BLM-TOP3A-RMI (BTR) complex (human, UniProt P54132 1-1417; Q13472 1-1001; Q9H9A7 1-625; Q96E14 2-147, limits assumed).
T1 construct: Endogenous complex in cell lysates (BLM, TOP3A, RMI1, RMI2); In the co-IPs it is read out by TOP3A and/or RMI1 immunoblot
T1 sequence (P54132 whole entry, chain 1 of 4): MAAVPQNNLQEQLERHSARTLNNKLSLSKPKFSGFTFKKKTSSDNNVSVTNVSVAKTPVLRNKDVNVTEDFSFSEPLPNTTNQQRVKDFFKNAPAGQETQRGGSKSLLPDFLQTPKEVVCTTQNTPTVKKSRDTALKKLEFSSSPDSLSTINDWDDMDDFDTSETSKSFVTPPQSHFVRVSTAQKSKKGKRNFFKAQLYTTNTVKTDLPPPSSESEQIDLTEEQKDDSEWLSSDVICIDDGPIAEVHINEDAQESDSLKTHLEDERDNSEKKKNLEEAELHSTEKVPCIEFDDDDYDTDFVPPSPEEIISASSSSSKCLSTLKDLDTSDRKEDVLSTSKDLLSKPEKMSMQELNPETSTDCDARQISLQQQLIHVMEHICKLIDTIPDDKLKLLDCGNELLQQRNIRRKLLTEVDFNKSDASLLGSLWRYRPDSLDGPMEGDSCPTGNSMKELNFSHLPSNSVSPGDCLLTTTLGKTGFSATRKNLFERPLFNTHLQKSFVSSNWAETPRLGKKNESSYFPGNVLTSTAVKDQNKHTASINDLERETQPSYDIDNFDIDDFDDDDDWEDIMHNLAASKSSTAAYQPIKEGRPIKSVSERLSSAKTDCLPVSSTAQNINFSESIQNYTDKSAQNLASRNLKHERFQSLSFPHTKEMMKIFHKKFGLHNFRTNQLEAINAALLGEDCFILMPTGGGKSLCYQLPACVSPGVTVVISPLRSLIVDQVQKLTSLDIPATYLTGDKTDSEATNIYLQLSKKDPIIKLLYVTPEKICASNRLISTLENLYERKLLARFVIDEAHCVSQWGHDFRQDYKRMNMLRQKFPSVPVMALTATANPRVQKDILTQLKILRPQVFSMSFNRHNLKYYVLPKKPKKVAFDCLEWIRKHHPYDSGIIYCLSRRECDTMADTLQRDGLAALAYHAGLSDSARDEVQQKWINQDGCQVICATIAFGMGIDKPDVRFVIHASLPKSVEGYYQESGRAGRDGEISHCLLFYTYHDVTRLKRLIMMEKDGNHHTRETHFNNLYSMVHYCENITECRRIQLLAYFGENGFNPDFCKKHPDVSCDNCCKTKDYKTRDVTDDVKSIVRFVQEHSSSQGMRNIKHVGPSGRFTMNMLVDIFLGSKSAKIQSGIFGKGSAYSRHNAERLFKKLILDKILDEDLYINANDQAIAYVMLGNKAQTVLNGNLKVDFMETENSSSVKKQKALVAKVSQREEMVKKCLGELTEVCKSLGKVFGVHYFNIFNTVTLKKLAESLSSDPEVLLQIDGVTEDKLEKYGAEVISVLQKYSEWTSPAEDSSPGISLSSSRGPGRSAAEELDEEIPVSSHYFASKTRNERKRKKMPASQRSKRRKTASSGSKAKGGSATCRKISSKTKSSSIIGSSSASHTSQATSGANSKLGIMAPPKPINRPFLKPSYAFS
T1 sequence (Q13472 whole entry, chain 2 of 4): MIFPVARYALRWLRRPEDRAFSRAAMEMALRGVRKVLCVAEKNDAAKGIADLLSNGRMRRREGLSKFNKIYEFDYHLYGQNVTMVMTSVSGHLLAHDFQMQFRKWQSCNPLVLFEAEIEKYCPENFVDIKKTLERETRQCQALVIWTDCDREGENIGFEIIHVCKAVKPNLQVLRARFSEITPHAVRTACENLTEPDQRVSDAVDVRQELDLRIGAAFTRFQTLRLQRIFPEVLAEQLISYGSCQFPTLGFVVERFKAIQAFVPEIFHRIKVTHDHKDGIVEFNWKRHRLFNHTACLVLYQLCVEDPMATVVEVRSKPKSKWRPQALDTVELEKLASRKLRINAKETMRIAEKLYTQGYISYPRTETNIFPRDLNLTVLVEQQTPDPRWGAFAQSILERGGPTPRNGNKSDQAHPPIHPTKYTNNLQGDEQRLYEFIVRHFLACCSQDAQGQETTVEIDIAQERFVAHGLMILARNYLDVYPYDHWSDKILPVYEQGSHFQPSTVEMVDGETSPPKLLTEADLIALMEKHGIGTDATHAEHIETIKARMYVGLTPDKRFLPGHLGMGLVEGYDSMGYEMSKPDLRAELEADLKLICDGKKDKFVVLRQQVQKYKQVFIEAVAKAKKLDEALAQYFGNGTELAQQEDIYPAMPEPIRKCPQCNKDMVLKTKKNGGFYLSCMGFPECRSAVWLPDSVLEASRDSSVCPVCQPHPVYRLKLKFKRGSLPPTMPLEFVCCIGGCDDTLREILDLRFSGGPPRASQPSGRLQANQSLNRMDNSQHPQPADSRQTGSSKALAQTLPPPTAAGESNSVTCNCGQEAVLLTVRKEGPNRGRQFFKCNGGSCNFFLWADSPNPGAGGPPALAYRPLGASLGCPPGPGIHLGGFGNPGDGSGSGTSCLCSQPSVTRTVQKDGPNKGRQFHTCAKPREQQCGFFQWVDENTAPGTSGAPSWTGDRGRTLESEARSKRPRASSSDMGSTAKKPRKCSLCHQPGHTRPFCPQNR
T1 sequence (Q9H9A7 whole entry, chain 3 of 4): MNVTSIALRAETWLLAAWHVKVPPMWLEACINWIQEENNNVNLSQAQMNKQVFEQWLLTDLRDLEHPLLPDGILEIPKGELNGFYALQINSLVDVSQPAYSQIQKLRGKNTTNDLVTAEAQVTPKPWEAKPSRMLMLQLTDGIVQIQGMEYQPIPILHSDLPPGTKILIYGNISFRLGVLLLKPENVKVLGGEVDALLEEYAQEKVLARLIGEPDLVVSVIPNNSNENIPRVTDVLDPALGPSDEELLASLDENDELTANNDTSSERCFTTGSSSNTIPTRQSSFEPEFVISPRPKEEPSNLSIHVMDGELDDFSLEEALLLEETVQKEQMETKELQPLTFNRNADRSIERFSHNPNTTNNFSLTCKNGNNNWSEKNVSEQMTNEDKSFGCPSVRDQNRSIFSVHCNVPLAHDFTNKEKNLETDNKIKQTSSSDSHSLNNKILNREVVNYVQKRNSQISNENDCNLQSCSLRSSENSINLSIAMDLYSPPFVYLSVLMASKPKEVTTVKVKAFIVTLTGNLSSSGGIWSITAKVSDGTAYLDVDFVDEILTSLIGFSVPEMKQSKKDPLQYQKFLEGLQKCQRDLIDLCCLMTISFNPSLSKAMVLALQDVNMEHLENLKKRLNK
T1 sequence (Q96E14 2-147 limits assumed, chain 4 of 4): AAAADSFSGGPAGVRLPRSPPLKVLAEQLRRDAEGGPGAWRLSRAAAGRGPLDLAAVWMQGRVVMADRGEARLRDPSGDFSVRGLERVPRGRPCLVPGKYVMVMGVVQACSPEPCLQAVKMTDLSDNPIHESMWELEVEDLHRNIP
The data set can be described thus: competition co-IP: peptide added to HEK-293 Flag-FANCM lysate, Flag IP, TOP3A immunoblot. How it is done:
For co-IP experiments involved the ER-inducible system, cells were lysed in IP buffer (20 mM Tris-HCl pH 7.5, 100 mM NaCl, 10% (v/v) glycerol, 0.5 mM EDTA, 1 mM DTT) supplemented with 1× mammalian protease inhibitor cocktail (Sigma Aldrich) and 50 U/ml Benzonase (Novagen) for 2 h at 4° C., with or without MM2 peptide variants (Mimotopes). Following lysis, NaCl concentration was increased to 250 mM, then the lysate cleared at 16,000×g for 15 mins. Supernatant was then mixed with 1 μg of α-FANCM (Abcam) or α-ER (Santa Cruz Biotechnology) and 20 μl protein G sepharose (GE Healthcare), or using α-Flag M2 agarose (Sigma Aldrich). Following 3 h of mixing at 4° C., beads were washed 4× with IP buffer, and 1× with 50 mM NH₄(CO₃)₂, 0.5 mM EDTA, then eluted with 500 mM NH₄OH (pH 11.0), 0.5 mM EDTA. Samples were then lyophilized and resuspended in 1×LDS loading buffer (Life Technologies) prior to immunoblotting.
To explore the possibility of specifically targeting ALT cell viability through FANCM, two approaches to disrupt the FANCM-BTR complex were adopted. […] To investigate the effects of FANCM-BTR complex disruption in ALT cells, the MM2 peptide was rendered functionally dependent on tamoxifen by fusion to the C-terminus of the estrogen receptor (MM2-ER) (FIG. 11a). […]

On to `CC[C@@]1(O)C(=O)OCc2c1cc1n(c2=O)Cc2cc3ccccc3nc2-1` [CPT, Camptothecin], for which the “BLM TIF frequencies” value with U2OS and HeLa cells (all samples) is given as “marginally affected TIF frequencies”. For the same molecule, the “nuclear (non-telomeric) BLM foci” value in the data set on U2OS and HeLa cells (siCt-transfected U2OS and HeLa cells, 1 μM camptothecin for 3 hours) is “robust formation of nuclear (non-telomeric) BLM foci”.

Consider “siFANCM2: Silencer Select siRNA FANCM2 (s33621) (SEQ ID NO: 13) (GAACAUACAUCAGAUAGCA; listed as RNA, chemistry not given here)”, for which the “metaphase-TIFs (meta-TIFs)” value in the data set on U-2 OS ALT cells was “significant increase in metaphase-TIFs”. Further, the “G-rich overhang and low molecular weight ss C-rich telomeric DNA (native TRF)” value in the data set with U-2 OS cells is “most marked effects”.

Take EDIFDCSRDLFSVTADLGACSPDSDDEILEHTSD (also called MM2-FF>AA mutant peptide) [mutant human FANCM MM2 peptide containing the FF>AA mutant]: the binding result in data set [1] is “no binding (tested: 1-50 µM)”.
